Data on two molecules can be found in patent US6608003B2, “Herbicidal solutions comprising fatty acid ammonium salts and dicarboxylic acid diesters and methods of using the same” (Falcon Lab LLC, priority 2000, dated 2003).

Data set [1] can be described thus: Solubility of the diester in 40% aqueous ammonium pelargonate solution. Type of data set: physicochemical. The settings on record: for amount of ester that dissolves in 100 g of 40% ammonium pelargonate to give a clear composition: 22 deg, successive additions of 99% ester; for dissolved diester content of the clear aqueous ammonium pelargonate composition: by weight, 40% (saturated) ammonium pelargonate solution. On the procedure:
A 40% solution of ammonium pelargonate was prepared by slowly adding 33 g. of 28% ammonium hydroxide to a stirred mixture of 89.3 g. of nonanoic acid (commercial pelargonic acid from Cognis Corp.) and 124.3 g. of distilled water.
To 361 gm. (2.29 mole) of technical pelargonic acid was added slowly with stirring a solution of 139 gm. of 28% ammonium hydroxide (2.29 mole NH3) in 500 ml. of deionized water.
A 40% solution of ammonium pelargonate was prepared by slowly adding 33 g. of 28% ammonium hydroxide to a stirred mixture of 89.3 g. of nonanoic acid (commercial pelargonic acid from Cognis Corp.) and 124.3 g. of distilled water. […]

The nature of a further data set: Solubility in water. Type of data set: physicochemical.

For `COC(=O)CCCCCC(=O)OC` [dimethyl pimelate, Dimethyl pimelate], in data set [1], the “amount of ester that dissolves in 100 g of 40% ammonium pelargonate to give a clear composition” value worked out at 22.5 g and the “dissolved diester content of the clear aqueous ammonium pelargonate composition” value was found to be 17.9%. For the same molecule, the “solubility in water (in words)” value in “Solubility in water” is “insoluble in water”.

Turning to `COC(=O)CCCCCCC(=O)OC` [dimethyl suberate, Dimethyl suberate], in data set [1], the “amount of ester that dissolves in 100 g of 40% ammonium pelargonate to give a clear composition” value was 19.3 g and the “dissolved diester content of the clear aqueous ammonium pelargonate composition” value was 16.2%. Besides, in “Solubility in water”, the “solubility in water (in words)” value is “insoluble in water”.
